The record followed here is patent US5583142A, “Analgesic and nootropic drugs” (priority 1992, dated 1996).

The assay is classed as in vivo, mouse. The following applies: for ANALGESIC ACTIVITY (degree of analgesia, latency on hot plate): max. dose not affecting mice behaviour. As for the experimental part: The analgesic action was detected in mouse, rat, guinea pig and dog. The mouse was subjected to hot plate and writhing tests; the rat to tail-flick and paw-pressure tests; the guinea pig to paw-pressure test only; the dog to the test described by Vainio et al. [J. Vet. Pharmacol. Ther., 12, 225-231 (1989)] using an electric stimulation. Consequently, the claimed compounds were tested with pain being induced by stimuli of different nature: thermal (hot plate and tail flick), chemical (writhing by acetic acid), mechanical (paw pressure) and electrical (cutaneous stimulation).
Potency, efficacy and toxicity of SM21, PG9 and SM32 in comparison with
four principal reference analgesic drugs tested in mouse. As analgesic

In the case of `CC(Oc1ccc(Cl)cc1)C(=O)OC1CC2CCC(C1)N2C` (single isomer, unassigned) [(R) ET142 (+)], the “ANALGESIC ACTIVITY (degree of analgesia, latency on hot plate)” value (from here on “ANALGESIC ACTIVITY”) is “+++ (Latency under or equal to 35" +++-)”.

For the compound `CC(Oc1ccc(F)cc1)C(=O)OC1CC2CCC(C1)N2C` (single isomer, unassigned) [(R) NR100 (+)], the “ANALGESIC ACTIVITY” value is recorded as “++++ (Latency above 35" ++++-)”.

With `CCC(Sc1ccc(Cl)cc1)C(=O)OC1CC2CCC(C1)N2C` (single isomer, unassigned) [(R) SM35 (+), 3α-Tropanyl 2-(p-chlorophenylthio)butyrate], the “ANALGESIC ACTIVITY” value was “+++ (Latency under or equal to 35" +++-)”.

Turning to `CC(Sc1ccc(Cl)cc1)C(=O)OC1CC2CCC(C1)N2C` (single isomer, unassigned) [(R) SS20 (+)], the “ANALGESIC ACTIVITY” value is given as “+++ (Latency under or equal to 35" +++-)”.

Consider `CC(Oc1ccc(Cl)cc1)C(=O)OC1CC2CCC(C1)N2C` (single isomer, unassigned) [(S) ET142 (-)], for which the “ANALGESIC ACTIVITY” value is “++ (Latency under or equal to 30" ++-)”.

With `CC(Oc1ccc(F)cc1)C(=O)OC1CC2CCC(C1)N2C` (single isomer, unassigned) [(S) NR100 (-)], the “ANALGESIC ACTIVITY” value was “+++ (Latency under or equal to 35" +++-)”.

`CCC(Sc1ccc(Cl)cc1)C(=O)OC1CC2CCC(C1)N2C` (single isomer, unassigned) [(S) SM35 (-), 3α-Tropanyl 2-(p-chlorophenylthio)butyrate]: the “ANALGESIC ACTIVITY” value is listed as “++ (Latency under or equal to 30" ++-)”.

In the case of `CC(Sc1ccc(Cl)cc1)C(=O)OC1CC2CCC(C1)N2C` (single isomer, unassigned) [(S) SS20 (+)], the “ANALGESIC ACTIVITY” value was “++ (Latency under or equal to 30" ++-)”.

In the case of `CC(Nc1ccc(Cl)cc1)C(=O)OC1CC2CCC(C1)N2C` (stereo not drawn) [AC5, 3α-Tropanyl 2-(p-chlorophenylamino)-propionate], the “ANALGESIC ACTIVITY” value is given as “+ (Latency under or equal to 25" +-)”.

Regarding `CC(C(=O)O[C@H]1C[C@H]2CC[C@@H](C1)N2C)N(C)c1ccc(Cl)cc1` (stereo partly drawn) [AC6, 3α-Tropanyl 2-[N-methyl-N(p-chlorophenyl)amino]-propionate], the “ANALGESIC ACTIVITY” value was “++ (Latency under or equal to 30" ++-)”.

Turning to `CC(C)C(Sc1ccc(Cl)cc1)C(=O)OC1CC2CCC(C1)N2C` (stereo not shown) [AC11], the “ANALGESIC ACTIVITY” value is recorded as “+ (Latency under or equal to 25" +-)”.

For `CCC(C(=O)OC1CC2CCC(C1)N2C)N(C)c1ccc(Cl)cc1` (stereo not shown) [AC13], the “ANALGESIC ACTIVITY” value is “++++ (Latency above 35" ++++-)”.

`CCC(Oc1ccc(F)cc1)C(=O)OC1CC2CCC(C1)N2C` (stereo not shown) [AC15]: the “ANALGESIC ACTIVITY” value was “++++ (Latency above 35" ++++-)”.

For the compound `CCC(Oc1ccc2cc(Br)ccc2c1)C(=O)OC1CC2CCC(C1)N2C` (stereo not shown) [AC31], the “ANALGESIC ACTIVITY” value is given as “+ (Latency under or equal to 25" +-)”.

For `CC(Oc1ccc2ccccc2c1)C(=O)O[C@H]1C[C@H]2CC[C@@H](C1)N2C` (stereo partly drawn) [AC-19, 3α-Tropanyl 2-(β-naphthoxy)propionate], the “ANALGESIC ACTIVITY” value is given as “+++ (Latency under or equal to 35" +++-)”.

Turning to `CCN1C2CCC1CC(OC(=O)C(C)Oc1ccc(Cl)cc1)C2` (stereo not shown) [GC9], the “ANALGESIC ACTIVITY” value is reported as “++ (Latency under or equal to 30" ++-)”.

Consider `CCC(Oc1ccc(Cl)cc1)C(=O)O[C@H]1C[C@H]2CC[C@@H](C1)N2CC` (stereo partly drawn) [GC-11, N-Ethyl-3α-nortropanyl 2-(p-chlopophenoxy)butyrate], for which the “ANALGESIC ACTIVITY” value is reported as “++ (Latency under or equal to 30" ++-)”.

Regarding `CN1CC[C@]23c4c5ccc(O)c4O[C@H]2[C@@H](O)C=C[C@H]3[C@H]1C5.Cl` [Morphine HCl, reference compound], the “dose required to obtain analgesia equivalent to that of the claimed compounds” value (mouse, in μmoles/kg) is reported as “three times lower”.

For the compound `CSc1ccc(OC(C)C(=O)O[C@H]2C[C@H]3CC[C@@H](C2)N3C)cc1` (stereo partly shown) [NR95], the “ANALGESIC ACTIVITY” value is reported as “+ (Latency under or equal to 25" +-)”.
